The values that follow are results of earlier work, collected in patent publication US20230270735A1, “TOPICAL FORMULATION” (INCANTHERA (R&D) LTD, priority 2020, published 2023).

Like-named read-outs stand apart in the source and are kept apart here.

Experiment in data set [1]: not given
This is another data set of the same source.

Another data set relates to actinic keratoses (AK). The note with it: 4 months.
In the next data set the target is PARP-1 (Homo sapiens, UniProt P09874). The settings on record: at a concentration of 50 μmol L^−1, in vitro.
Chain of PARP-1 (P09874 whole entry, species assumed): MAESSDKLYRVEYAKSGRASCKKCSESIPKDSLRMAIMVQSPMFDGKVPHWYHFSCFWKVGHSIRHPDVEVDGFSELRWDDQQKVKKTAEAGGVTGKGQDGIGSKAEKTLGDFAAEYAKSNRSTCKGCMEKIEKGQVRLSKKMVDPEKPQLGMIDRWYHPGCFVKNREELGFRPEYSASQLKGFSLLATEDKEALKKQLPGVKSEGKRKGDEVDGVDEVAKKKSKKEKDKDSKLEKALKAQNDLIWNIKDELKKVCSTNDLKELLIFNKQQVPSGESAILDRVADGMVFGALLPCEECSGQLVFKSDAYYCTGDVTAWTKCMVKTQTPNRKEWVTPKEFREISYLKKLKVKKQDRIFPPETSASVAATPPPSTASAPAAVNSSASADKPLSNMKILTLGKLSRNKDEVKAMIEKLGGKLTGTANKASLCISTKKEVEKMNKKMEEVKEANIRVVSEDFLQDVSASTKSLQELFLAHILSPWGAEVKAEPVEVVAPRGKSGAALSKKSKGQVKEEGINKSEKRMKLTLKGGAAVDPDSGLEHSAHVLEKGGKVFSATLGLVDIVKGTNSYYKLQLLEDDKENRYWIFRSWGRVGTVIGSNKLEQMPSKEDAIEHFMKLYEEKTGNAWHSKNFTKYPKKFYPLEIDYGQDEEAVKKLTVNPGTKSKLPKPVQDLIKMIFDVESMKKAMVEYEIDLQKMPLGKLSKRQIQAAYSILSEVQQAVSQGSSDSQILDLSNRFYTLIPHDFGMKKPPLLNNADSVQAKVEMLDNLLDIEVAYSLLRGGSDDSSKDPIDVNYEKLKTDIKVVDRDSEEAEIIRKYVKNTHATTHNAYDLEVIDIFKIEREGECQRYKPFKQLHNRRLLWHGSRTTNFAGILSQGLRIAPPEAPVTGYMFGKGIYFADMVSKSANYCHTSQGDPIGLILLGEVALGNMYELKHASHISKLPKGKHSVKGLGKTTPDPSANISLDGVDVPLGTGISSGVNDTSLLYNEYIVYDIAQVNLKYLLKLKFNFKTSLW

For the compound `NC(=O)c1cccnc1` [NAM, pyridine-3-carboxamide], the “Log P (octanol/water)” value is −0.4. The “range of peak plasma concentrations” value in data set [1] (1 g (~0.5 g/M^2) oral dose, healthy volunteers) is 81 to 158 µmol/L. Further, the peak plasma concentrations in data set [1] (oral 500 mg, extrapolated by Malesu et al. (22) from Stratford data) is around 80 µmol/L. The “reduction in AK versus baseline” value with actinic keratoses (AK) (study 1, oral 500 mg twice daily) is 35%. Moreover, the “reduction in AK versus baseline” value with actinic keratoses (AK) (study 2, oral 500 mg once daily) is reported as 29%. In addition, the “rate of new nonmelanoma skin cancers lowered compared with placebo” value in the data set on nonmelanoma skin cancers (oral 500 mg twice a day, 12 months) was 23%. Besides, the “CD4^+ helper T cells and cytotoxic CD8^+ T cells in the tumour microenvironment of melanomas, compared with placebo” value in the data set with nonmelanoma skin cancers (oral NAM group) is “significant increase”. Besides, the systemic adverse effects result in the data set on nonmelanoma skin cancers (oral doses 500-1,000 mg/day) is reported as “without significant systemic adverse effects”. The “inhibition of PARP-1” value on PARP-1 was 60%.
